The values below come from ChEMBL document CHEMBL1122714, “Pyrazolo[4,3-d]pyrimidine nucleosides. Synthesis and antiviral activity of 1-beta-D-ribofuranosyl-3-methyl-6-substituted-7H-pyrazolo[4,3-d]pyr imi din-7-ones” (1984).

This experiment relates to Human alphaherpesvirus 1. Put plainly: In vitro antiviral activity by means of plaque-inhibition assay with monolayers of Vero cells infected with the MP strain of herpes simplex virus-1 (HSV-1). The format is functional. The settings on record: Human alphaherpesvirus 1, Vero; read-out: ED50 (the source's name).
For `Cc1nn(C2O[C@H](CO)[C@@H](O)[C@H]2O)c2c(=O)n(-c3ccc(Cl)cc3)cnc12` (some centres undefined), the EC50 was 50 µM. Take `CCCCn1cnc2c(C)nn(C3O[C@H](CO)[C@@H](O)[C@H]3O)c2c1=O` (some centres undefined): the EC50 worked out at 152 µM.

Turning to `Cc1nn(C2O[C@H](CO)[C@@H](O)[C@H]2O)c2c(=O)n(CCC(C)C)cnc12` (some centres undefined), the EC50 came out at 350 µM. As to `Cc1nn(C2O[C@H](CO)[C@@H](O)[C@H]2O)c2c(=O)n(Cc3ccccc3)cnc12` (some centres undefined), the EC50 is 245 µM. Consider `COc1ccc(Cn2cnc3c(C)nn(C4O[C@H](CO)[C@@H](O)[C@H]4O)c3c2=O)cc1` (some centres undefined), for which the EC50 was determined as 49.5 µM. Consider `Cc1ccc(-n2cnc3c(C)nn(C4O[C@H](CO)[C@@H](O)[C@H]4O)c3c2=O)cc1` (some centres undefined), for which the EC50 is 280 µM. As for `Cc1nn(C2O[C@H](CO)[C@@H](O)[C@H]2O)c2c(=O)n(CCc3ccccc3)cnc12` (some centres undefined), the EC50 came to 174 µM. Turning to `Cc1nn(C2O[C@H](CO)[C@@H](O)[C@H]2O)c2c(=O)n(Cc3ccc(Cl)cc3)cnc12` (some centres undefined), the EC50 is 220 µM.

On to `O=c1[nH]c(=O)n([C@H]2C[C@H](O)[C@@H](CO)O2)cc1I` [IDOXURIDINE], for which the EC50 amounted to 1.2 µM.
